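How tested: cells in 96-well plates exposed to compound for 48 hours at five concentrations. TGI denotes the concentration required for complete inhibition of growth.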
Columns and labels:
Assay in all cases: NCI tumour cell line growth inhibition, 48 h
MDA-MB-231 breast = tested on: MDA-MB-231 breast
K-562 leukemia = tested on: K-562 leukemia
HL-60(TB) leukemia = tested on: HL-60(TB) leukemia
SNB-19 CNS = tested on: SNB-19 CNS
LOX IMVI melanoma = tested on: LOX IMVI melanoma
HCC-2998 colon = tested on: HCC-2998 colon
MOLT-4 leukemia = tested on: MOLT-4 leukemia
UO-31 renal = tested on: UO-31 renal
M14 melanoma = tested on: M14 melanoma
T-47D breast = tested on: T-47D breast
UACC-62 melanoma = tested on: UACC-62 melanoma
786-0 renal = tested on: 786-0 renal
CCRF-CEM leukemia = tested on: CCRF-CEM leukemia
MDA-MB-435 = tested on: MDA-MB-435
A549 NSCLC = tested on: A549 NSCLC
A498 renal = tested on: A498 renal
BT-549 breast = tested on: BT-549 breast
MCF7 breast = tested on: MCF7 breast
MDA-N = tested on: MDA-N
OVCAR-8 ovarian = tested on: OVCAR-8 ovarian
HOP-92 NSCLC = tested on: HOP-92 NSCLC
NCI/ADR-RES ovarian = tested on: NCI/ADR-RES ovarian
HCT-15 colon = tested on: HCT-15 colon
SR leukemia = tested on: SR leukemia
NCI-H460 lung = tested on: NCI-H460 lung
UACC-257 melanoma = tested on: UACC-257 melanoma
SF-295 CNS = tested on: SF-295 CNS
OVCAR-4 ovarian = tested on: OVCAR-4 ovarian
SK-MEL-5 melanoma = tested on: SK-MEL-5 melanoma
U251 CNS = tested on: U251 CNS
SN12C renal = tested on: SN12C renal
SK-MEL-28 melanoma = tested on: SK-MEL-28 melanoma
NCI-H522 lung = tested on: NCI-H522 lung
ACHN renal = tested on: ACHN renal
MALME-3M melanoma = tested on: MALME-3M melanoma
HT29 colon = tested on: HT29 colon
NCI-H23 lung = tested on: NCI-H23 lung
TK-10 renal = tested on: TK-10 renal
HCT-116 colon = tested on: HCT-116 colon
EKVX NSCLC = tested on: EKVX NSCLC
OVCAR-3 ovarian = tested on: OVCAR-3 ovarian
IGROV1 ovarian = tested on: IGROV1 ovarian
RXF 393 renal = tested on: RXF 393 renal
HS 578T breast = tested on: HS 578T breast
SF-268 CNS = tested on: SF-268 CNS
OVCAR-5 ovarian = tested on: OVCAR-5 ovarian
NCI-H226 lung = tested on: NCI-H226 lung
SK-OV-3 ovarian = tested on: SK-OV-3 ovarian
COLO 205 colon = tested on: COLO 205 colon
KM12 colon = tested on: KM12 colon
PC-3 prostate = tested on: PC-3 prostate
SW-620 colon = tested on: SW-620 colon
CAKI-1 renal = tested on: CAKI-1 renal
DU-145 prostate = tested on: DU-145 prostate
HOP-62 NSCLC = tested on: HOP-62 NSCLC

Measured: TGI

CC[C@@H](C)[C@H](NC(=O)[C@H](Cc1ccccc1)NCC(F)(F)F)C(=O)OC(C)(C)C
> 100 µM: MDA-MB-231 breast | K-562 leukemia | HL-60(TB) leukemia | SNB-19 CNS | LOX IMVI melanoma | HCC-2998 colon | MOLT-4 leukemia | UO-31 renal | M14 melanoma | T-47D breast | UACC-62 melanoma | 786-0 renal | CCRF-CEM leukemia | MDA-MB-435 | A549 NSCLC | A498 renal | BT-549 breast | MCF7 breast | MDA-N | OVCAR-8 ovarian | HOP-92 NSCLC | NCI/ADR-RES ovarian | HCT-15 colon | SR leukemia | NCI-H460 lung | UACC-257 melanoma | SF-295 CNS | OVCAR-4 ovarian | SK-MEL-5 melanoma | U251 CNS | SN12C renal | SK-MEL-28 melanoma | NCI-H522 lung | ACHN renal | MALME-3M melanoma | HT29 colon | NCI-H23 lung | TK-10 renal | HCT-116 colon | EKVX NSCLC | OVCAR-3 ovarian | IGROV1 ovarian | RXF 393 renal | HS 578T breast | SF-268 CNS | OVCAR-5 ovarian | NCI-H226 lung | SK-OV-3 ovarian | COLO 205 colon | KM12 colon | PC-3 prostate | SW-620 colon | CAKI-1 renal | DU-145 prostate | HOP-62 NSCLC
